Results published in patent publication US20220370416A1, “COMPOUNDS AND METHODS FOR TARGETED DEGRADATION OF KRAS” (Arvinas Operations, Inc., priority 2020, published 2022).

Target: HiBit-KRAS^G12C (Homo sapiens, UniProt P01116, G12C)
Test: HiBit degradation assay in SW1573 HiBit-KRas^G12C cells
Format: cell-based
Design: expressed in transfected cells; host or cells: SW1573 (clone E6), modified pcDNA3.1 vector, TK promoter
Details: 0.1% DMSO, 24 hours; for Dmax: SW1573, SW1573 HiBit-KRas^G12C, read-out: KRas^G12C-HiBit (SW1573; 0.1% DMSO) Dmax**; for DC50: SW1573 HiBit-KRas^G12C, read-out: KRas^G12C-HIBit (SW1573; 0.1% DMSO) DC50*
Description: Reagents. SW1573 (CRL-2170) and MiaPaCa-2 (CRL-1420) cells were purchased from ATCC. Both cell lines are […] for the G12C mutation in KRAS. SW1573 cells were cultured in DMEM+F12+Glutamax (+Sodium Bicarbonate, +sodium pyruvate, Thermofisher scientific, #10565) supplemented with 10% FBS (Thermofisher scientific, #2060357) and 1% Antibiotic-Antimycotic (Thermofisher scientific, #15240096). MiaPaCa-2 cells were cultured in DMEM+Glutamax media (Thermofisher scientific, #10566) supplemented with 10% FBS (Thermofisher scientific, #2060357) and 1% Antibiotic-Antimycotic (Thermofisher scientific, #15240096). For degradation assays, 384 well plates were purchased from Corning (Corning® CellBIND® 384-well Flat Clear Bottom Black Polystyrene Microplates, Low Flange, #3770). Gambogic acid was purchased from Selleckchem (#S2448). Alamar blue was purchased from Thermofisher scientific (A50101) and used according to manufacturer instructions. The Nano-Glo® HiBit Lytic Detection System and Nano-Glo® HiBit Blotting System were purchased from Promega (#N3050 and #N2410) and used according to manufacturer instructions.
To create the SW1573 HiBit-KRAS^G12C cell line, the nucleotide sequence encoding the 11 amino acid HiBit tag from Promega (Schwinn, M. K. et al. (2018) CRISPR-mediated tagging of endogenous proteins with a luminescent peptide. ACS Chem. Biol. 13(2), 467-474) was appended to the N-terminus of the KRAS^G12C coding sequence. This synthesized DNA was cloned into a modified pcDNA3.1 vector under the control of the thymidine kinase (TK) promoter. This HiBit-KRAS^G12C expressing plasmid was transfected into parental SW1573 cells and colonies were selected using 400 μg/mL zeocin. The resulting clonal lines were screened for expression of HiBit-KRAS^G12C protein using Nano-Glo® HiBit Blotting System. A luminescent band of the correct size for HiBit-KRAS^G12C was detected in several clones. Clone E6 was selected for further studies.
Either SW1573 HiBit-KRas^G12C or MiaPaCa-2 HiBit-KRas^G12C cells were plated at 9000 cells/well in a 384 well plate (Corning #3770). Exemplary heterobifunctional molecules and positive controls were diluted in the appropriate cell media and applied to the plated cells resulting in a final concentration titration of 10 μM to 20 nM in either 0.1% or 0.5% dimethyl sulfoxide (DMSO). Gambogic acid was used as a positive control for cytotoxicity and titrated from 10 μM to 78 nM. All assays were performed in triplicate. Cells were treated with compounds for 24 hours at 37° C. in an incubator containing 5% CO2. Following treatment, alamar blue was used to determine if any compounds led to a loss in cell viability after 24 hours. The 10× alamar blue reagent was added to a final concentration of 1× as recommended by the manufacturer and cells were returned to the incubator for 4 hours. Plates were then allowed to equilibrate to room temperature and fluorescence was measured using a Perkin-Elmer EnVision. After completion of the fluorescence read, the liquid from each well was removed and the cells were washed with PBS. The Nano-Glo® HiBiT detection reagent was prepared according to the manufacturer's instructions and added to each well after the PBS wash was removed. Following incubation at room temperature for 45 minutes, the luminescence was read using the ultra-sensitive luminescence aperture on the Envision instrument.
Fluorescence values from the alamar blue treatment were normalized to the DMSO only control for each compound titration. We hypothesized that compounds that led to a ≥50% loss in cell viability of the KRAS-independent SW1573 HiBit-KRas^G12C cells were likely generally cytotoxic and loss of HiBit-KRAS^G12C signal from these compounds may be due to lower cell number and not specific KRAS^G12C degradation. These points were therefore excluded from the data analysis for degradation. […]

Chain of HiBit-KRAS^G12C (P01116 1-186 isoform P01116-2 G12C limits assumed): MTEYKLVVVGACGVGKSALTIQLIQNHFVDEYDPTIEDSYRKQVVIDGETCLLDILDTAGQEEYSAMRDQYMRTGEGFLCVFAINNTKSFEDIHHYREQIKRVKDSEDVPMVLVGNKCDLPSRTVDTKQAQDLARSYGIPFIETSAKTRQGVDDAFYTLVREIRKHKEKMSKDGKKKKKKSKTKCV

| Structure (SMILES) | Dmax [%] | DC50 [nM] |
| --- | --- | --- |
| C=CC(=O)N1CCN(c2nc(OC[C@@H]3C[C@@H](OCCOc4cc(-c5scnc5C)ccc4CNC(=O)[C@@H]4C[C@@H](O)CN4C(=O)[C@@H](c4cc(C)no4)C(C)C)CN3C)nc3c2CCN(c2cccc4ccccc24)C3)C[C@@H]1CC#N [Compound 87, (2S,4R)-N-{[2-(2-{[(3R,5S)-5-[({4-[(3S)-3-(cyanomethyl)-4-(prop-2-enoyl)piperazin-1-yl]-7-(naphthalen-1-yl)-5H,6H,7H,8H-pyrido[3,4-d]pyrimidin-2-yl}oxy)methyl]-1-methylpyrrolidin-3-yl]oxy}ethoxy)-4-(4-methyl-1,3-thiazol-5-yl)phenyl]methyl}-4-hydroxy-1-[(2R)-3-methyl-2-(3-methyl-1,2-oxazol-5-yl)butanoyl]pyrrolidine-2-carboxamide] | 35 to 70 | > 1000 |
| C=C(F)C(=O)N1CCN(c2nc(O[C@H](C)CN3CCC(COc4cc([C@H](C(=O)N5C[C@H](O)C[C@H]5C(=O)N[C@@H](C)c5ccc(-c6scnc6C)cc5)C(C)C)on4)CC3)nc3c(F)c(-c4cc(O)cc5ccccc45)c(Cl)cc23)CC1 [Compound 14, (2S,4R)-1-[(2R)-2-[3-({1-[(2R)-2-({6-chloro-8-fluoro-4-[4-(2-fluoroprop-2-enoyl)piperazin-1-yl]-7-(3-hydroxynaphthalen-1-yl)quinazolin-2-yl}oxy)propyl]piperidin-4-yl}methoxy)-1,2-oxazol-5-yl]-3-methylbutanoyl]-4-hydroxy-N-[(1S)-1-[4-(4-methyl-1,3-thiazol-5-yl)phenyl]ethyl]pyrrolidine-2-carboxamide] | – | > 1000 |
| C=C(F)C(=O)N1CCN(c2nc(OCCN3CCC(OCCOc4cc([C@@H](C(=O)N5C[C@H](O)C[C@H]5C(=O)N[C@@H](C)c5ccc(-c6scnc6C)cc5)C(C)C)on4)CC3)nc3c(F)c(-c4cc(O)cc5ccccc45)c(Cl)cc23)C[C@@H]1CC#N [Compound 1, (2S,4R)-1-[(2S)-2-{3-[2-({1-[2-({6-chloro-4-[(3S)-3-(cyanomethyl)-4-(2-fluoroprop-2-enoyl)piperazin-1-yl]-8-fluoro-7-(3-hydroxynaphthalen-1-yl)quinazolin-2-yl}oxy)ethyl]piperidin-4-yl}oxy)ethoxy]-1,2-oxazol-5-yl}-3-methylbutanoyl]-4-hydroxy-N-[(1S)-1-[4-(4-methyl-1,3-thiazol-5-yl)phenyl]ethyl]pyrrolidine-2-carboxamide] | – | > 1000 |
| C=CC(=O)N1CCN(c2nc(O[C@H](C)CN3CCC(OCCOCCOCCOCCOCCOCCOCCOCCOCC(=O)N[C@H](C(=O)N4C[C@H](O)C[C@H]4C(=O)N[C@@H](C)c4ccc(-c5scnc5C)cc4)C(C)(C)C)CC3)nc3c(F)c(-c4cc(O)cc5ccccc45)c(Cl)cc23)CC1 [Compound 84, (2S,4R)-1-[(2S)-2-[26-({1-[(2R)-2-{[6-chloro-8-fluoro-7-(3-hydroxynaphthalen-1-yl)-4-[4-(prop-2-enoyl)piperazin-1-yl]quinazolin-2-yl]oxy}propyl]piperidin-4-yl}oxy)-3,6,9,12,15,18,21,24-octaoxahexacosanamido]-3,3-dimethylbutanoyl]-4-hydroxy-N-[(1S)-1-[4-(4-methyl-1,3-thiazol-5-yl)phenyl]ethyl]pyrrolidine-2-carboxamide] | – | > 1000 |
| C=CC(=O)N1CCN(c2nc(O[C@H](C)CN3CCC(CCCN4CCN(CC(=O)N[C@H](C(=O)N5C[C@H](O)C[C@H]5C(=O)N[C@@H](C)c5ccc(-c6scnc6C)cc5)C(C)(C)C)CC4)CC3)nc3c(F)c(-c4cc(O)cc5ccccc45)c(Cl)cc23)CC1 [Compound 56, (2S,4R)-1-[(2S)-2-{2-[4-(3-{1-[(2R)-2-{[6-chloro-8-fluoro-7-(3-hydroxynaphthalen-1-yl)-4-[4-(prop-2-enoyl)piperazin-1-yl]quinazolin-2-yl]oxy}propyl]piperidin-4-yl}propyl)piperazin-1-yl]acetamido}-3,3-dimethylbutanoyl]-4-hydroxy-N-[(1S)-1-[4-(4-methyl-1,3-thiazol-5-yl)phenyl]ethyl]pyrrolidine-2-carboxamide] | – | > 1000 |
| C=CC(=O)N1CCN(c2nc(O[C@H](C)CN3CCC(OCCOCCOCCOCCOCCOCCOCCOCCOCCOCCOCC(=O)N[C@H](C(=O)N4C[C@H](O)C[C@H]4C(=O)N[C@@H](C)c4ccc(-c5scnc5C)cc4)C(C)(C)C)CC3)nc3c(F)c(-c4cc(O)cc5ccccc45)c(Cl)cc23)CC1 [Compound 83, (2S,4R)-1-[(2S)-2-[32-({1-[(2R)-2-{[6-chloro-8-fluoro-7-(3-hydroxynaphthalen-1-yl)-4-[4-(prop-2-enoyl)piperazin-1-yl]quinazolin-2-yl]oxy}propyl]piperidin-4-yl}oxy)-3,6,9,12,15,18,21,24,27,30-decaoxadotriacontanamido]-3,3-dimethylbutanoyl]-4-hydroxy-N-[(1S)-1-[4-(4-methyl-1,3-thiazol-5-yl)phenyl]ethyl]pyrrolidine-2-carboxamide] | – | > 1000 |

Further lines, results first:

| Dmax [%] | DC50 [nM] | Structure (SMILES) |
| --- | --- | --- |
| – | > 1000 | C=CC(=O)N1CCN(c2nc(OC[C@@H]3C[C@@H](OCCOCCOCCOCCOCCOCCOCCOCCOCC(=O)N[C@H](C(=O)N4C[C@H](O)C[C@H]4C(=O)N[C@@H](C)c4ccc(-c5scnc5C)cc4)C(C)(C)C)CN3C)nc3c2CCN(c2cccc4ccccc24)C3)C[C@@H]1CC#N [Compound 74, (2S,4R)-1-[(2S)-2-(26-{[(3R,5S)-5-[({4-[(3S)-3-(cyanomethyl)-4-(prop-2-enoyl)piperazin-1-yl]-7-(naphthalen-1-yl)-5H,6H,7H,8H-pyrido[3,4-d]pyrimidin-2-yl}oxy)methyl]-1-methylpyrrolidin-3-yl]oxy}-3,6,9,12,15,18,21,24-octaoxahexacosanamido)-3,3-dimethylbutanoyl]-4-hydroxy-N-[(1S)-1-[4-(4-methyl-1,3-thiazol-5-yl)phenyl]ethyl]pyrrolidine-2-carboxamide] |
| – | > 1000 | C=CC(=O)N1CCN(c2nc(O[C@H](C)CN3CCC(OCCOCCOCCOc4cc(-c5scnc5C)ccc4CNC(=O)[C@@H]4C[C@@H](O)CN4C(=O)[C@@H](c4cc(C)no4)C(C)C)CC3)nc3c(F)c(-c4cc(O)cc5ccccc45)c(Cl)cc23)CC1 [Compound 70, (2S,4R)-N-{[2-(2-{2-[2-({1-[(2R)-2-{[6-chloro-8-fluoro-7-(3-hydroxynaphthalen-1-yl)-4-[4-(prop-2-enoyl)piperazin-1-yl]quinazolin-2-yl]oxy}propyl]piperidin-4-yl}oxy)ethoxy]ethoxy}ethoxy)-4-(4-methyl-1,3-thiazol-5-yl)phenyl]methyl}-4-hydroxy-1-[(2R)-3-methyl-2-(3-methyl-1,2-oxazol-5-yl)butanoyl]pyrrolidine-2-carboxamide] |
| < 35 | > 1000 | C=C(F)C(=O)N1CCN(c2nc(O[C@H](C)CN3CCC(COCC(=O)N[C@H](C(=O)N4C[C@H](O)C[C@H]4C(=O)N[C@@H](C)c4ccc(-c5scnc5C)cc4)C(C)(C)C)CC3)nc3c(F)c(-c4cc(O)cc5ccccc45)c(Cl)cc23)CC1 [Compound 27, (2S,4R)-1-[(2S)-2-[2-({1-[(2R)-2-({6-chloro-8-fluoro-4-[4-(2-fluoroprop-2-enoyl)piperazin-1-yl]-7-(3-hydroxynaphthalen-1-yl)quinazolin-2-yl}oxy)propyl]piperidin-4-yl}methoxy)acetamido]-3,3-dimethylbutanoyl]-4-hydroxy-N-[(1S)-1-[4-(4-methyl-1,3-thiazol-5-yl)phenyl]ethyl]pyrrolidine-2-carboxamide] |
